Data reported in ChEMBL document CHEMBL6092158, “Green synthesis of neuroprotective spirocyclic chalcone derivatives and their role in protecting against traumatic optic nerve injury” (Eur J Med Chem, 2024).
Activity calls are given as the source filed them. The calls are words filed in the database; no cut-off is given here.

How the values were obtained:
R28 [1] = assay: Cytoprotective activity against hydrogen peroxide-induced cytotoxicity in rat R28 cells assessed as increase in cell viability at 10 uM preincubated for 24 hrs followed by incubation with H2O2 for 24 hrs by MTT assay; assay type: functional, cell-based
R28 [2] = assay: Cytoprotective activity against glutamate-induced cytotoxicity in rat R28 cells assessed as increase in cell viability at 10 uM incubated for 24 hrs in presence of glutamate by MTT assay; assay type: functional, cell-based
[3] = Antioxidant activity assessed as DPPH radical scavenging activity at 100 uM by DPPH assay; assay type: functional
[4] = Acute toxicity in C57BL/6J mouse assessed as lung damage at 500 mg/kg, ip and measured on day 14 by Hematoxylin-Eosin staining based analysis; assay type: organism-based; settings: in vivo, 336 h, time 14 day
[5] = Acute toxicity in C57BL/6J mouse assessed as kidney weight at 500 mg/kg, ip and measured on day 14; assay type: organism-based; settings: in vivo, 336 h, time 14 day
[6] = Acute toxicity in C57BL/6J mouse assessed as AST level in serum at 500 mg/kg, ip and measured on day 14; assay type: organism-based; settings: in vivo, 336 h, time 14 day
Mus musculus [7] = assay: Effect on total JNK level in retinal tissue of optic nerve crush C57BL/6J mouse model at 1 ug/ul administered into vitreous cavity immediately after ONC surgery and measured on day 7 post-surgery by western blot analysis; assay type: functional; settings: dose 1.0 µg/microL, route ivt, time 7.0 day
[8] = Induction of apoptosis in rat R28 cells assessed as viable cells incubated for 24 hrs by AnnexinV-FITC/PI staining based flow cytometry (reference value: 91.34%); assay type: toxicity, cell-based; settings: read-out: Activity
[9] = Inhibition of glutamate-induced apoptosis in rat R28 cells assessed as necrotic cells incubated for 24 hrs by AnnexinV-FITC/PI staining based flow cytometry (reference value: 0.68%); assay type: functional; design: scale not given: the % may be the effect or the level left
[10] = Acute toxicity in C57BL/6J mouse assessed as heart weight at 500 mg/kg, ip and measured on day 14; assay type: organism-based; settings: in vivo, 336 h, time 14 day
R28 [11] = assay: Antioxidant activity in rat R28 cells assessed as inhibition of glutamate-induced reactive oxygen species generation by measuring decrease in fluorescence intensity at 5 uM incubated for 24 hrs by DCFH-DA staining based immunofluorescence analysis; assay type: functional, cell-based
Cortical neurone [12] = assay: Antioxidant activity in rat primary cortical neuron assessed as inhibition of glutamate-induced reactive oxygen species generation at 5 uM incubated for 24 hrs by DCFH-DA staining based immunofluorescence analysis; assay type: functional, cell-based
Mus musculus [13] = assay: Neuroprotective activity against optic nerve crush C57BL/6J mouse model assessed as increase in ganglion cell layer complex at 1 ug/ul administered into vitreous cavity immediately after ONC surgery and measured on day 7 post-surgery by optical coherence examination analysis; assay type: functional, organism-based; settings: dose 1.0 µg/microL, route ivt, time 7.0 day
[14] = Induction of apoptosis in rat R28 cells assessed as late apoptotic cells incubated for 24 hrs by AnnexinV-FITC/PI staining based flow cytometry (reference value: 4.59%); assay type: toxicity, cell-based; settings: r28, 24 h
[15] = Cytotoxicity against rat R28 cells assessed as effect on cell viability by MTT assay; assay type: toxicity, cell-based
Mus musculus [16] = assay: Neuroprotective activity against optic nerve crush C57BL/6J mouse model assessed as increase in P1-N2 wave amplitude of optic nerve at 1 ug/ul administered into vitreous cavity immediately after ONC surgery and measured on day 7 post-surgery by F-EVP based electrophysiological analysis; assay type: functional, organism-based; settings: dose 1.0 µg/microL, route ivt, time 7.0 day
Mus musculus [17] = assay: Neuroprotective activity against optic nerve crush C57BL/6J mouse model assessed as increase in inner plexiform layer complex at 1 ug/ul administered into vitreous cavity immediately after ONC surgery and measured on day 7 post-surgery by optical coherence examination analysis; assay type: functional, organism-based; settings: dose 1.0 µg/microL, route ivt, time 7.0 day
Mus musculus [18] = assay: Neuroprotective activity against optic nerve crush C57BL/6J mouse model assessed as restoration of P1 latency of optic nerve at 1 ug/ul administered into vitreous cavity immediately after ONC surgery and measured on day 7 post-surgery by […] based electrophysiological analysis; assay type: functional, organism-based; settings: dose 1.0 µg/microL, route ivt, time 7.0 day
Mus musculus [19] = assay: Neuroprotective activity against optic nerve crush C57BL/6J mouse model assessed as increase in retinal nerve fibre layer thickness complex at 1 ug/ul administered into vitreous cavity immediately after ONC surgery and measured on day 7 post-surgery by optical coherence examination analysis; assay type: functional, organism-based; settings: dose 1.0 µg/microL, route ivt, time 7.0 day
[20] = Acute toxicity in C57BL/6J mouse assessed as spleen weight at 500 mg/kg, ip and measured on day 14; assay type: organism-based; settings: in vivo, 336 h, time 14 day
[21] = Inhibition of glutamate-induced apoptosis in rat R28 cells assessed as early apoptotic cells incubated for 24 hrs by AnnexinV-FITC/PI staining based flow cytometry (reference value: 69.04%); assay type: functional; design: scale not given: the % may be the effect or the level left
[22] = Inhibition of glutamate-induced apoptosis in rat R28 cells assessed as late apoptotic cells incubated for 24 hrs by AnnexinV-FITC/PI staining based flow cytometry (reference value: 3.47%); assay type: functional; design: scale not given: the % may be the effect or the level left
[23] = Acute toxicity in C57BL/6J mouse assessed as kidney damage at 500 mg/kg, ip and measured on day 14 by Hematoxylin-Eosin staining based analysis; assay type: organism-based; settings: in vivo, 336 h, time 14 day
[24] = Acute toxicity in C57BL/6J mouse assessed as lungs weight at 500 mg/kg, ip and measured on day 14; assay type: organism-based; settings: in vivo, 336 h, time 14 day
[25] = Antioxidant activity in rat R28 cells assessed as inhibition of glutamate-induced reactive oxygen species generation at 5 uM incubated for 24 hrs by DCFH-DA staining based flow cytometry (reference value: 16.61%); assay type: functional; design: scale not given: the % may be the effect or the level left
[26] = Acute toxicity in C57BL/6J mouse assessed as animal activity level at 500 mg/kg, ip; assay type: organism-based; settings: in vivo
[27] = Acute toxicity in C57BL/6J mouse assessed as heart damage at 500 mg/kg, ip and measured on day 14 by Hematoxylin-Eosin staining based analysis; assay type: organism-based; settings: in vivo, 336 h, time 14 day
[28] = Acute toxicity in C57BL/6J mouse assessed as spleen damage at 500 mg/kg, ip and measured on day 14 by Hematoxylin-Eosin staining based analysis; assay type: organism-based; settings: in vivo, 336 h, time 14 day
[29] = Inhibition of glutamate-induced apoptosis in rat R28 cells assessed as viable cells incubated for 24 hrs by AnnexinV-FITC/PI staining based flow cytometry (reference value: 28.81%); assay type: functional
[30] = Antioxidant activity assessed as DPPH radical scavenging activity at 20 uM by DPPH assay; assay type: functional
[31] = Induction of apoptosis in rat R28 cells assessed as early apoptotic cells incubated for 24 hrs by AnnexinV-FITC/PI staining based flow cytometry (reference value: 1.53%); assay type: toxicity, cell-based; settings: r28, 24 h
[32] = Effect on reactive oxygen species generation in rat R28 cells at 5 uM incubated for 24 hrs by DCFH-DA staining based flow cytometry (reference value: 0.49%); assay type: toxicity, cell-based; settings: r28, 24 h
R28 [33] = assay: Cytoprotective activity against oxidative glutamate-induced cytotoxicity in rat R28 cells assessed as increase in cell viability at 1.25 to 2.5 uM incubated for 24 hrs by MTT assay; assay type: functional, cell-based; settings: dose 1.25-2.5 µM
R28 [34] = assay: Antioxidant activity in rat R28 cells assessed as inhibition of glutamate-induced oxidative stress by measuring decrease in intracellular MDA level; assay type: functional, cell-based
[35] = Acute toxicity in C57BL/6J mouse assessed as ALT level in serum at 500 mg/kg, ip and measured on day 14; assay type: organism-based; settings: in vivo, 336 h, time 14 day
Mus musculus [36] = assay: Neuroprotective activity against optic nerve crush C57BL/6J mouse model at 1 ug/ul administered into vitreous cavity immediately after ONC surgery and measured on day 7 post-surgery by optical coherence examination analysis; assay type: functional, organism-based; settings: dose 1.0 µg/microL, route ivt, time 7.0 day
R28 [37] = assay: Inhibition of glutamate-induced apoptosis in rat R28 cells assessed as decrease in number of PI-positive cells at 5 uM incubated for 24 hrs by Hoechst33342/PI staining based fluorescence microscopic analysis; assay type: functional, cell-based
[38] = Acute toxicity in C57BL/6J mouse assessed as liver weight at 500 mg/kg, ip and measured on day 14; assay type: organism-based; settings: in vivo, 336 h, time 14 day
Mus musculus [39] = assay: Inhibition of glutamate-induced JNK phosphorylation in retinal tissue of optic nerve crush C57BL/6J mouse model at 1 ug/ul administered into vitreous cavity immediately after ONC surgery and measured on day 7 post-surgery by western blot analysis; assay type: functional; settings: dose 1.0 µg/microL, route ivt, time 7.0 day
[40] = Induction of apoptosis in rat R28 cells assessed as necrotic cells incubated for 24 hrs by AnnexinV-FITC/PI staining based flow cytometry (reference value: 2.54%); assay type: toxicity, cell-based; settings: r28, 24 h
[41] = Acute toxicity in C57BL/6J mouse assessed as liver damage at 500 mg/kg, ip and measured on day 14 by Hematoxylin-Eosin staining based analysis; assay type: organism-based; settings: in vivo, 336 h, time 14 day
[42] = Acute toxicity in C57BL/6J mouse assessed as body weight at 500 mg/kg, ip measured for 14 days; assay type: organism-based; settings: in vivo, 336 h, time 14 day
[43] = Acute toxicity in C57BL/6J mouse assessed as retinal damage at 500 mg/kg, ip and measured on day 14 by Hematoxylin-Eosin staining based analysis; assay type: organism-based; settings: in vivo, 336 h, time 14 day
Cortical neurone [44] = assay: Cytoprotective activity against oxidative glutamate-induced cytotoxicity in rat primary cortical neuronal cells assessed as increase in cell viability at 1.25 uM incubated for 24 hrs by CCK8 assay; assay type: functional, cell-based

For `CN1C[C@H](c2ccc(O)c(O)c2)[C@@H](C(=O)c2cccc(F)c2)[C@]12C(=O)Nc1ccccc12`, the Activity (R28 [1]) was “Active” and the Activity (R28 [2]) was “Active”.
In the case of `CN1C[C@H](c2ccc(O)c(O)c2)[C@@H](C(=O)c2cccc(C(F)(F)F)c2)[C@]12C(=O)Nc1ccccc12`, the Activity (R28 [1]) was “inactive” and the Activity (R28 [2]) was “inactive”.
With `CN1C[C@H](c2ccc(O)c(O)c2)[C@@H](C(=O)c2ccc(Br)cc2)[C@]12C(=O)Nc1ccccc12` the Activity (R28 [1]) was “Active” and the Activity (R28 [2]) was “Active”.
In the case of `CN1C[C@H](c2ccc(O)c(O)c2)[C@@H](C(=O)c2cccc(O)c2)[C@]12C(=O)Nc1ccccc12`, the Activity (R28 [1]) was “Active” and the Activity (R28 [2]) was “Active”.
In the case of `CN1C[C@H](c2ccc(O)c(O)c2)[C@@H](C(=O)c2ccc([N+](=O)[O-])cc2)[C@]12C(=O)Nc1ccccc12`, the Activity (R28 [1]) was “inactive” and the Activity (R28 [2]) was “inactive”.
In the case of `CN1C[C@H](c2ccc(O)c(O)c2)[C@@H](C(=O)c2cccc(Br)c2)[C@]12C(=O)Nc1ccccc12`, the Activity (R28 [1]) was “Active” and the Activity (R28 [2]) was “Active”.
In the case of `CN1C[C@H](c2ccc(O)c(O)c2)[C@@H](C(=O)c2ccc(Cl)cc2Cl)[C@]12C(=O)Nc1ccccc12`, the Activity (R28 [1]) was “Active” and the Activity (R28 [2]) was “Active”.
With `CN1C[C@H](c2ccc(O)c(O)c2)[C@@H](C(=O)c2ccc(S(C)(=O)=O)cc2)[C@]12C(=O)Nc1ccccc12` the Activity (R28 [1]) was “inactive” and the Activity (R28 [2]) was “inactive”.
For `CN1C[C@H](c2ccc(O)c(O)c2)[C@@H](C(=O)c2cc(F)cc(F)c2)[C@]12C(=O)Nc1ccccc12`, the Activity (R28 [1]) was “Active”, the inhibition [3] was 95% and the Activity [4] was “Non-toxic”. The Activity [5] was “Non-toxic”, the Activity [6] was “Non-toxic” and the Activity (Mus musculus [7]) was “inactive”. For the same molecule, the viability at 24 h [8] was 87.5%, the Activity [9] was 2.54% and the Activity [10] was “Non-toxic”. The Activity (R28 [11]) was “Active”, the Activity (Cortical neurone [12]) was “Active” and the Activity (Mus musculus [13]) was “Active”. The Activity [14] was 8.4%, the Activity [15] was “Toxic” and the Activity (Mus musculus [16]) was “Active”. For the same molecule, the Activity (Mus musculus [17]) was “Active”, the Activity (Mus musculus [18]) was “Active” and the Activity (Mus musculus [19]) was “Active”. For the same molecule, the Activity [20] was “Non-toxic”, the Activity [21] was 1.63% and the Activity [22] was 6.05%. For the same molecule, the Activity [23] was “Non-toxic”, the Activity [24] was “Non-toxic” and the Activity [25] was 4.62%. The Activity [26] was “Non-toxic”, the Activity [27] was “Non-toxic” and the Activity [28] was “Non-toxic”. For the same molecule, the Activity [29] was 89.77%, the Activity [30] was “Active” and the Activity [31] was 1.94%. For the same molecule, the Activity [32] was 2.05%, the Activity (R28 [33]) was “Active” and the Activity (R28 [2]) was “Active”. For the same molecule, the Activity (R28 [34]) was “Active”, the Activity [35] was “Non-toxic” and the Activity (Mus musculus [36]) was “Active”. For the same molecule, the inhibition (R28 [37]) was “Active”, the Activity [38] was “Non-toxic” and the inhibition (Mus musculus [39]) was “Active”. For the same molecule, the Activity [40] was 2.13%, the Activity [41] was “Non-toxic” and the Activity [42] was “Non-toxic”. For the same molecule, the Activity [43] was “Non-toxic” and the Activity (Cortical neurone [44]) was “Active”.
With `COc1ccc(C(=O)[C@@H]2[C@@H](c3ccc(O)c(O)c3)CN(C)[C@@]23C(=O)Nc2ccccc23)cc1` the Activity (R28 [1]) was “Active” and the Activity (R28 [2]) was “Active”.
In the case of `COc1cc(C(=O)[C@@H]2[C@@H](c3ccc(O)c(O)c3)CN(C)[C@@]23C(=O)Nc2ccccc23)cc(OC)c1OC`, the Activity (R28 [1]) was “Active” and the Activity (R28 [2]) was “Active”.
In the case of `CN1C[C@H](c2ccc(O)c(O)c2)[C@@H](C(=O)c2cc(C(F)(F)F)cc(C(F)(F)F)c2)[C@]12C(=O)Nc1ccccc12`, the Activity (R28 [1]) was “inactive” and the Activity (R28 [2]) was “inactive”.
